Data on one compound can be found in paper PMC4883822, “High-Efficiency Capture of Drug Resistant-Influenza Virus by Live Imaging of Sialidase Activity” (PLoS ONE, 2016).

This assay deals with T1, sialidase (neuraminidase, NA) of oseltamivir-sensitive 838 (Influenza A virus (A/Lima/070674913/2013(H1N1)), UniProt W8DXJ8).
T1 construct: full-length viral NA on whole virus grown in MDCK cells (or on infected MDCK cells); natural 275H
Briefly: live-focus fluorescence imaging of sialidase activity, qualitative. The note with it: substrate BTP3-Neu5Ac, 37 °C, 1 h, infected MDCK cells. It is filed as cell-based.

Turning to `CCC(CC)[C@H](NC(C)=O)[C@@H]1[C@H](O)[C@@H](C(=O)O)C[C@H]1N=C(N)N` [peramivir], the “inhibition at 10-1000 nM (qualitative)” value was “adding BTP3-Neu5Ac with clinical use-approved NAIs (oseltamivir, zanamivir, peramivir, and laninamivir)”.
